Here are results for 15 compounds from patent US8865623B2, “Herbicidally active cyclic diones and derivatives thereof, processes for their preparation, compositions, and method of controlling weeds” (Syngenta Limited, priority 2009, dated 2014).

SMILES strings stand for the structures.

Holding throughout (type): in vivo
The test system of test [1] is Alopecurus myosuroides (ALOMY). The test is described as follows: Pre-emergence herbicidal activity, glasshouse pot test. Particulars: Alopecurus myosuroides, 312 h, Rate 250 g/ha, evaluated after 13 days, read-out: Pre-emergence activity ALOMY (100=total damage to plant; 0=no damage to plant). An outline of the steps: (§1)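 Test species are sown in pots of standard soil and sprayed either one day after sowing or after 8 days of cultivation, for pre- and post-emergence respectively. Plants grow in a controlled glasshouse, watered twice daily, and damage is assessed at 13 days, 0 to 100.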

The subject of test [2] is Avena fatua (AVEFA). The description is as above. Particulars: Avena fatua, 312 h, Rate 250 g/ha, evaluated after 13 days, read-out: Pre-emergence activity AVEFA (100=total damage to plant; 0=no damage to plant). Summed up: as §1
The subject of test [3] is Echinochloa crus-galli (ECHCG). Described as above. Particulars: Echinochloa crus-galli, 312 h, Rate 250 g/ha, evaluated after 13 days, read-out: Pre-emergence activity ECHCG (100=total damage to plant; 0=no damage to plant). An outline of the steps:
as §1

The subject of test [4] is Lolium perenne (LOLPE). The description is as above. Particulars: Lolium perenne, 312 h, Rate 250 g/ha, evaluated after 13 days, read-out: Pre-emergence activity LOLPE (100=total damage to plant; 0=no damage to plant). An outline of the steps: as §1
In test [5] the test system is Alopecurus myosuroides (ALOMY). The test can be described thus: Post-emergence herbicidal activity, glasshouse pot test. Particulars: Alopecurus myosuroides, 312 h, rate 250 g/ha, evaluated after 13 days, read-out: Post-emergence activity ALOMY (100=total damage to plant; 0=no damage to plant). Summed up:
as §1

In test [6] the test system is Avena fatua (AVEFA). The description is as above. Particulars: Avena fatua, 312 h, rate 250 g/ha, evaluated after 13 days, read-out: Post-emergence activity AVEFA (100=total damage to plant; 0=no damage to plant). Summed up:
as §1

The subject of test [7] is Echinochloa crus-galli (ECHCG). Described as above. Particulars: Echinochloa crus-galli, 312 h, rate 250 g/ha, evaluated after 13 days, read-out: Post-emergence activity ECHCG (100=total damage to plant; 0=no damage to plant). An outline of the steps: as §1
Test [8] has as its system Lolium perenne (LOLPE). The description is as above. Particulars: Lolium perenne, 312 h, rate 250 g/ha, evaluated after 13 days, read-out: Post-emergence activity LOLPE (100=total damage to plant; 0=no damage to plant). Summed up: as §1

Turning to `CCc1ccc(Oc2ccc(C(F)(F)F)cc2Br)cc1C1=C(O)C(C)(C)OC(C)(C)C1=O` [Example A-78], the pest or weed control at 250 g/ha was 100% in test [1] (pre-emergence spray); 80% in the test with Avena fatua (AVEFA) [2] (pre-emergence spray); 100% in test [3] (pre-emergence spray); 100% with Lolium perenne (LOLPE) [4] (pre-emergence spray); 100% in test [5] (glasshouse); 90% in the test with Avena fatua (AVEFA) [6] (glasshouse). Besides, the pest or weed control at 250 g/ha (in test [7] (glasshouse); in the test with Lolium perenne (LOLPE) [8] (glasshouse)) was 90% throughout.
As to `CCc1ccc(Oc2ccc3nc(Cl)cn3n2)cc1C1=C(O)C(C)(C)OC(C)(C)C1=O` [Example A-131], the pest or weed control at 250 g/ha in test [1] (pre-emergence spray) was determined as 30%; in the test with Avena fatua (AVEFA) [2] (pre-emergence spray), 40%; in test [3] (pre-emergence spray) it was 90%; with Lolium perenne (LOLPE) [4] (pre-emergence spray) it was 60%; in test [5] (glasshouse), 70%; in the test on Avena fatua (AVEFA) [6] (glasshouse), 80%. Further, the pest or weed control at 250 g/ha stood at 90% in test [7] (glasshouse) and 70% in the test with Lolium perenne (LOLPE) [8] (glasshouse).
For the compound `CCc1ccc(Oc2ccc(C#N)cc2F)cc1C1=C(O)C(C)(C)OC(C)(C)C1=O` [Example A-21], the pest or weed control at 250 g/ha in test [1] (pre-emergence spray) came to 0%; in the test with Avena fatua (AVEFA) [2] (pre-emergence spray), 0%; in test [3] (pre-emergence spray) it was 30%; in the test with Lolium perenne (LOLPE) [4] (pre-emergence spray) it was 20%; in test [5] (glasshouse), 100%; in the test with Avena fatua (AVEFA) [6] (glasshouse), 60%. Further, the figures for the pest or weed control at 250 g/ha (in test [7] (glasshouse); in the test on Lolium perenne (LOLPE) [8] (glasshouse)) were 100% and 70%, respectively.
On to `CCc1ccc(Oc2ccc(Cl)c(F)c2)cc1C1=C(O)CC2(CCOCC2)CC1=O` [Example A-66], for which the pest or weed control at 250 g/ha in test [1] (pre-emergence spray) was determined as 100%; in the test on Avena fatua (AVEFA) [2] (pre-emergence spray) it was 90%; in test [3] (pre-emergence spray), 100%; in the test on Lolium perenne (LOLPE) [4] (pre-emergence spray), 80%; in test [5] (glasshouse) it was 100%; in the test with Avena fatua (AVEFA) [6] (glasshouse), 100%. In addition, the figures for the pest or weed control at 250 g/ha (in test [7] (glasshouse); in the test on Lolium perenne (LOLPE) [8] (glasshouse)) were 100% and 80%, respectively.
As for `CCc1ccc(Oc2nc3ccccc3nc2C(F)(F)F)cc1C1=C(O)C(C)(C)OC(C)(C)C1=O` [Example A-174], the pest or weed control at 250 g/ha in test [1] (pre-emergence spray) is 50%; with Avena fatua (AVEFA) [2] (pre-emergence spray) it was 40%; in test [3] (pre-emergence spray), 100%; with Lolium perenne (LOLPE) [4] (pre-emergence spray), 70%; in test [5] (glasshouse), 90%; in the test with Avena fatua (AVEFA) [6] (glasshouse), 100%. The values for the pest or weed control at 250 g/ha (in test [7] (glasshouse); in the test on Lolium perenne (LOLPE) [8] (glasshouse)) were 100% and 90%, respectively.
For the compound `CCc1ccc(Oc2ncc(Br)cn2)cc1C1=C(O)CC2(CCOCC2)CC1=O` [Example A-310], the pest or weed control at 250 g/ha in test [1] (pre-emergence spray) was 100%; in the test with Avena fatua (AVEFA) [2] (pre-emergence spray) it was 50%; in test [3] (pre-emergence spray), 100%; with Lolium perenne (LOLPE) [4] (pre-emergence spray), 70%; in test [5] (glasshouse), 100%; with Avena fatua (AVEFA) [6] (glasshouse) it was 80%. Also, the results for the pest or weed control at 250 g/ha (in test [7] (glasshouse); in the test on Lolium perenne (LOLPE) [8] (glasshouse)) were 100% and 90%, respectively.
For the compound `CC1(C)OC(C)(C)C(O)=C(c2cc(Oc3ccc(Cl)cc3)ccc2C2CC2)C1=O` [Example A-349], the pest or weed control at 250 g/ha in test [1] (pre-emergence) was 40%; in the test with Avena fatua (AVEFA) [2] (pre-emergence), 10%; in test [3] (pre-emergence), 100%; with Lolium perenne (LOLPE) [4] (pre-emergence), 90%; in test [5], 60%; in the test on Avena fatua (AVEFA) [6] it was 0%. Also, the values for the pest or weed control at 250 g/ha (in test [7]; with Lolium perenne (LOLPE) [8]) were 100% and 80%, respectively.
`CC1(C)OC(C)(C)C(O)=C(c2cc(Oc3nc4ccc(Cl)cc4s3)ccc2C2CC2)C1=O` [Example A-366]: the pest or weed control at 250 g/ha was determined as 50% in test [1] (pre-emergence); 30% with Avena fatua (AVEFA) [2] (pre-emergence); 90% in test [3] (pre-emergence); 90% with Lolium perenne (LOLPE) [4] (pre-emergence); 100% in test [5]; 80% with Avena fatua (AVEFA) [6]. The pest or weed control at 250 g/ha (in test [7]; in the test with Lolium perenne (LOLPE) [8]) was 100% in each case.
With `CCc1ccc(Oc2ccc(C(F)(F)F)c(C#N)c2)cc1C1=C(O)C(C)(C)OC(C)(C)C1=O` [Example A-210], the pest or weed control at 250 g/ha in test [1] (pre-emergence spray) is 30%; with Avena fatua (AVEFA) [2] (pre-emergence spray), 10%; in test [3] (pre-emergence spray), 60%; in the test with Lolium perenne (LOLPE) [4] (pre-emergence spray), 20%; in test [5] (glasshouse), 90%; in the test on Avena fatua (AVEFA) [6] (glasshouse), 90%. Further, the pest or weed control at 250 g/ha (in test [7] (glasshouse); in the test on Lolium perenne (LOLPE) [8] (glasshouse)) was 100% throughout.
Consider `CCc1ccc(Oc2ccc(F)cc2F)cc1C1=C(O)C(C)(C)OC(C)(C)C1=O` [Example A-14], for which the pest or weed control at 250 g/ha in test [1] (pre-emergence spray) worked out at 0%; in the test on Avena fatua (AVEFA) [2] (pre-emergence spray), 0%; in test [3] (pre-emergence spray), 0%; in the test with Lolium perenne (LOLPE) [4] (pre-emergence spray) it was 0%; in test [5] (glasshouse), 0%; in the test with Avena fatua (AVEFA) [6] (glasshouse) it was 10%. The pest or weed control at 250 g/ha in test [7] (glasshouse) was found to be 100%; with Lolium perenne (LOLPE) [8] (glasshouse) it was 40%.
Take `CCc1ccc(Oc2ccc(Br)c(Cl)c2)cc1C1=C(O)CC(C)(C)CC1=O` [Example A-258]: the pest or weed control at 250 g/ha in test [1] (pre-emergence spray) was determined as 30%; with Avena fatua (AVEFA) [2] (pre-emergence spray) it was 10%; in test [3] (pre-emergence spray), 70%; with Lolium perenne (LOLPE) [4] (pre-emergence spray), 30%; in test [5] (glasshouse) it was 70%; in the test on Avena fatua (AVEFA) [6] (glasshouse), 70%. Moreover, the values for the pest or weed control at 250 g/ha (in test [7] (glasshouse); in the test with Lolium perenne (LOLPE) [8] (glasshouse)) were 100% and 80%, respectively.
Turning to `CCc1ccc(Oc2cnc3cc(F)ccc3n2)cc1C1=C(O)CC(C)(C)CC1=O` [Example A-298], the pest or weed control at 250 g/ha (in test [1] (pre-emergence spray); in the test with Avena fatua (AVEFA) [2] (pre-emergence spray); in test [3] (pre-emergence spray); with Lolium perenne (LOLPE) [4] (pre-emergence spray); in test [5] (glasshouse); with Avena fatua (AVEFA) [6] (glasshouse)) was 100% throughout. The pest or weed control at 250 g/ha (in test [7] (glasshouse); in the test on Lolium perenne (LOLPE) [8] (glasshouse)) was 100% each time.
Regarding `CCc1ccc(Oc2cc(F)ccc2C#N)cc1C1=C(O)C(C)(C)OC(C)(C)C1=O` [Example A-117], the pest or weed control at 250 g/ha amounted to 0% in test [1] (pre-emergence spray); 0% in the test on Avena fatua (AVEFA) [2] (pre-emergence spray); 20% in test [3] (pre-emergence spray); 20% in the test with Lolium perenne (LOLPE) [4] (pre-emergence spray); 80% in test [5] (glasshouse); 30% in the test with Avena fatua (AVEFA) [6] (glasshouse). Also, the figures for the pest or weed control at 250 g/ha (in test [7] (glasshouse); with Lolium perenne (LOLPE) [8] (glasshouse)) were 100% and 40%, respectively.
Regarding `CC1(C)OC(C)(C)C(O)=C(c2cc(Oc3cc(C#N)ccc3F)ccc2C2CC2)C1=O` [Example A-358], the pest or weed control at 250 g/ha in test [1] (pre-emergence) was determined as 60%; in the test on Avena fatua (AVEFA) [2] (pre-emergence) it was 0%; in test [3] (pre-emergence) it was 90%; in the test with Lolium perenne (LOLPE) [4] (pre-emergence) it was 90%; in test [5] it was 90%; with Avena fatua (AVEFA) [6], 60%. Further, the pest or weed control at 250 g/ha was determined as 100% in test [7] and 60% with Lolium perenne (LOLPE) [8].
Take `CCc1ccc(Oc2ncc(Cl)cc2Cl)cc1C1=C(O)C(C)(C)OC(C)(C)C1=O` [Example A-44]: the pest or weed control at 250 g/ha (in test [1] (pre-emergence spray); in the test on Avena fatua (AVEFA) [2] (pre-emergence spray); in test [3] (pre-emergence spray); in the test on Lolium perenne (LOLPE) [4] (pre-emergence spray); in test [5] (glasshouse); in the test with Avena fatua (AVEFA) [6] (glasshouse)) was 100% throughout. In addition, the pest or weed control at 250 g/ha (in test [7] (glasshouse); in the test with Lolium perenne (LOLPE) [8] (glasshouse)) was 100% in each case.
